Experimental data from US7666890B2, “Synthesis and herbicidal activity of 1- (2-substituted benzo[d]thiazol-5-yl)-1H-1,2,4-triazol-5(4H)-one derivatives” (Huazhong Normal University, priority 2007, dated 2010).

How the values were obtained:
[1] = system: Amaranthus retroflexus; assay: Test of herbicidal activities (greenhouse pot method); type: in vivo; conditions: single dose 300 g ai./h, treated before/after germination, 15 days later, greenhouse pot; for inhibition at 300 g/ha: Amaranthus retroflexus, 360 h, read-out: Herbicidal activity Amaranthus retroflexus (inhibition level)
Summary of the method: (§1)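 Greenhouse pot test on weeds grown in mixed garden/mountain/humus soil at 15-30° C; pre- and post-emergence spray at a single dose of 300 g ai./h via automatic spraying tower (0.2 MPa). Inhibition scored after 15 days into five levels A (90-100%) to E (<50%); triplicate with blank control.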

[2] = system: Brassica juncea; assay: as above; type: in vivo; conditions: single dose 300 g ai./h, treated before/after germination, 15 days later, greenhouse pot; for inhibition at 300 g/ha: Brassica juncea, 360 h, read-out: Herbicidal activity Brassica juncea (inhibition level)
Summary of the method: as §1

[3] = system: Chenopodium album; assay: as above; type: in vivo; conditions: single dose 300 g ai./h, treated before/after germination, 15 days later, greenhouse pot; for inhibition at 300 g/ha: Chenopodium album, 360 h, read-out: Herbicidal activity Chenopodium album (inhibition level)
Summary of the method: as §1

[4] = system: Digiatria sanguinalis; assay: as above; type: in vivo; conditions: single dose 300 g ai./h, treated before/after germination, 15 days later, greenhouse pot; for inhibition at 300 g/ha: 360 h, read-out: Herbicidal activity Digiatria sanguinalis (inhibition level)
Summary of the method: as §1

[5] = system: Echinochloa crusgalli; assay: as above; type: in vivo; conditions: single dose 300 g ai./h, treated before/after germination, 15 days later, greenhouse pot; for inhibition at 300 g/ha: Echinochloa crus-galli, 360 h, read-out: Herbicidal activity Echinochloa crusgalli (inhibition level)
Summary of the method: as §1

[6] = system: Setaria viridis; assay: as above; type: in vivo; conditions: single dose 300 g ai./h, treated before/after germination, 15 days later, greenhouse pot; for inhibition at 300 g/ha: Setaria viridis, 360 h, read-out: Herbicidal activity Setaria viridis (inhibition level)
Summary of the method: as §1

Structure (SMILES)	inhibition at 300 g/ha [1] [%]	inhibition at 300 g/ha [2] [%]	inhibition at 300 g/ha [3] [%]	inhibition at 300 g/ha [4] [%]	inhibition at 300 g/ha [5] [%]	inhibition at 300 g/ha [6] [%]	melting point [°C]	Herbicidal activity Amaranthus retroflexus (inhibition level) [1]	Herbicidal activity Brassica juncea (inhibition level) [2]	Herbicidal activity Chenopodium album (inhibition level) [3]	Herbicidal activity Digiatria sanguinalis (inhibition level) [4]	Herbicidal activity Echinochloa crusgalli (inhibition level) [5]	Herbicidal activity Setaria viridis (inhibition level) [6]
Cc1nn(-c2cc3nc(S(=O)(=O)Cc4ccccc4Cl)sc3cc2Cl)c(=O)n1C(F)F [Compound 39, 1-(2-(2-chlorobenzylsulfonyl)-6-chlorobenzo[d]thiazol-5-yl)-4-(difluoromethyl)-3-methyl-1H-1,2,4-triazol-5(4H)-one]	80 to 90	80 to 90	60 to 80	60 to 80	< 50	60 to 80	196 to 198	–	–	–	–	–	–
Cc1nn(-c2cc3nc([S+]([O-])Cc4ccccc4)sc3cc2F)c(=O)n1C (stereo not drawn) [Compound 101, 1-(2-(benzylsulfinyl)-6-fluorobenzo[d]thiazol-5-yl)-3,4-dimethyl-1H-1,2,4-triazol-5(4H)-one]	60 to 80	50 to 60	80 to 90	60 to 80	80 to 90	60 to 80	162 to 164	–	–	–	–	–	–
Cc1nn(-c2cc3nc([S+](C)[O-])sc3cc2F)c(=O)n1C (stereo not drawn) [Compound 102, 1-(6-fluoro-2-(methylsulfinyl)benzo[d]thiazol-5-yl)-3,4-dimethyl-1H-1,2,4-triazol-5(4H)-one]	80 to 90	60 to 80	90 to 100	50 to 60	< 50	60 to 80	199 to 201	–	–	–	–	–	–
C#CCSc1nc2cc(-n3nc(C)n(C(F)F)c3=O)c(F)cc2s1 [Compound 130]	–	–	–	–	–	–	–	A (90 ≦ A ≦ 100%)	D (50 ≦ D < 60%)	B (80 ≦ B < 90%)	C (60 ≦ C < 80%)	B (80 ≦ B < 90%)	A (90 ≦ A ≦ 100%)
